Tested on: U937 cells
Test: Comet assay of U937 cells irradiated with 4 Gy
Assay type: cell-based, human
Conditions: 10 μM, 24 hr after irradiation
Experimental: Considering that the LD50/30 (i.e., the dose that […] in 50% of the animals at 30 days) for mice is approximately 8 Gy (Bichay et al., 1986, Strahlenther Onkol, 162(6):391-399), the 50 Gy dose used to irradiate the cells in the previous example was rather high. Thus, the Zn^2+-chelates were tested for radioprotection against a more physiological dose of radiation. The Zn^2+-chelates tested were Zn-NAC, Zn-captopril, Zn-2-propylthiazolidine-4-carboxylic acid (Zn-PTCA), and Zn-penacillamine. U937 cells were exposed to a Zn^2+-chelate (10 μM), irradiated with 4 Gy, and DNA fragmentation and apoptosis were measured using a single-cell gel electrophoresis assay (also known as Comet assay) 24 hr after irradiation. Alkaline or neutral Comet assays were performed using CometAssay™ kits from Trevigen (Gaithersburg, MC) according to the manufacturer's instructions. The slides were analyzed under an epifluorescense microscope using the Comet assay image analysis software (CometScore; TriTek, Sumerduck, Va.).
For `NCCCNCCSP(=O)(O)O` [amifostine, Amifostine], the “Visual comets (DNA degradation)” value was “absent”.

Tested on: not listed separately
Test: Trolox-Equivalent Antioxidant Capacity (TEAC) Assay
Conditions: not given
For `CC(C)(S)[C@@H](N)C(=O)O` [Penicillamine], the “Antioxidant activity in TEAC assay” value was “strongest antioxidants”.
With zinc-penicillamine [Zn-Penicillamine] the “Antioxidant activity in TEAC assay” value was “strongest antioxidants”.
For `[Zn+2]` [Unchelated Zn^2+], the “Antioxidant activity in TEAC assay” value was “no activity”.

Same assay, conditions: relative to Trolox standard assigned TEAC 1.00; ligand
In the case of `CC(C)(S)[C@@H](N)C(=O)O` [Penicillamine], the “TEAC value, Ligand” value is reported as 1.54.
With `N[C@@H](CS)C(=O)O` [Cysteine] the “TEAC value, Ligand” value was 0.43.
For `NCCS` [Cysteamine], the “TEAC value, Ligand” value was 0.40.
In the case of `C[C@H](CS)C(=O)N1CCC[C@H]1C(=O)O` [Captopril], the “TEAC value, Ligand” value is reported as 0.90.
In the case of `CC(=O)N[C@@H](CS)C(=O)O` [NAC, N-Acetylcysteine], the “TEAC value, Ligand” value is reported as 0.88.
In the case of `CC(S)C(=O)NCC(=O)O` (stereo not drawn) [MPG, N-(2-mercaptopropionyl)glycine], the “TEAC value, Ligand” value is reported as 0.53.

Same assay, conditions: relative to Trolox standard assigned TEAC 1.00; zinc chelate of the named ligand
In the case of Zn^2+-Cysteine [Zn-Cysteine], the “TEAC value, Chelate” value is reported as 0.65.
In the case of zinc-penicillamine [Zn-Penicillamine], the “TEAC value, Chelate” value is reported as 2.05.
For “Zn—N-(2-mercaptopropionyl)glycine [Zn-MPG]”, the “TEAC value, Chelate” value was 0.97.
With Zn^2+-Cysteamine [Zn-Cysteamine] the “TEAC value, Chelate” value was 0.87.
With zinc-captopril [Zn-Captopril] the “TEAC value, Chelate” value was 0.90.

Tested on: U937 human promonocytic cells
Test: not given
Conditions: not given
Experimental: To determine the radioprotective effects of Zn^2+-chelates, U937 human promonocytic cells (ATCC number CRL-1593.2) were irradiated with or without Zn^2+-chelates added to the cells before or after irradiation, and radiation-induced cell death was measured 24 hr later using a propidium iodide (PI) assay. Propidium iodide was added to the cells at a final concentration of 4 μM and incubated for 15 minutes. Fluorescence (which indicates dead cells) was measured at 530/645 nm, and fluorescence was measured again after cell lysis with Triton-100 (1%, v/v) for 20 minutes (to give an estimate of total cells). The background (no cells) was subtracted, and the percent of the radiation-induced cell death was computed.
Different concentrations (0-100 μM) of a compound were added to the cells, which were then irradiated with 50 Gy.
Human U937 cells were irradiated in vitro with 50 Gy and the compounds were added at different concentrations (0-100 μM) immediately after irradiation. […] Cell death was measured 24 hr after irradiation using a PI assay (as detailed above).
For Zn^2+-Cysteine [Zn-Cysteine], the Radiation-induced cell death was “inhibited”.

Same assay, conditions: 50 Gy; 0-100 μM added immediately after irradiation; PI assay 24 hr
For Zn^2+-Cysteine [Zn-Cysteine], the Radioprotection / cytoprotection was “significant cytoprotection”.
For `N[C@@H](CS)C(=O)O` [Cysteine], the Radioprotection / cytoprotection was “not cytoprotective”.
With `[Cl-].[Cl-].[Zn+2]` [ZnCl2] the Radioprotection / cytoprotection was “did not provide any radioprotection”.
With `CC(=O)N[C@@H](CS)C(=O)O` [NAC, N-Acetylcysteine] the Radioprotection / cytoprotection was “not cytoprotective”.

Same assay, conditions: U937 cells; 0-100 μM; 50 Gy
In the case of `[Cl-].[Cl-].[Zn+2]` [ZnCl2], the Cytotoxicity is reported as “rather cytotoxic”.

Same assay, conditions: added before 50 Gy; PI assay
With Zn^2+-Cysteamine [Zn-Cysteamine] the “Inhibition of cell death compared with that induced by cysteamine or amifostine” value was “better”.

Same assay, conditions: compound added before 50 Gy; Zn^2+-chelate 1-20 μM; PI assay 24 hr later
In the case of `NCCS` [Cysteamine], the Radiation-induced cell death is reported as “inhibition”.
With “Zn—N-(2-mercaptopropionyl)glycine [Zn-MPG]” the Radiation-induced cell death was “inhibited”.
With Zn^2+-Cysteamine [Zn-Cysteamine] the Radiation-induced cell death was “inhibited”.
For `NCCCNCCSP(=O)(O)O` [amifostine, Amifostine], the Radiation-induced cell death was “inhibition”.

Target: T1, recombinant human DNase I (Homo sapiens, UniProt P24855)
T1 construct: Recombinant DNase I was produced using a similar approach; made in house
T1 sequence (P24855 23-282): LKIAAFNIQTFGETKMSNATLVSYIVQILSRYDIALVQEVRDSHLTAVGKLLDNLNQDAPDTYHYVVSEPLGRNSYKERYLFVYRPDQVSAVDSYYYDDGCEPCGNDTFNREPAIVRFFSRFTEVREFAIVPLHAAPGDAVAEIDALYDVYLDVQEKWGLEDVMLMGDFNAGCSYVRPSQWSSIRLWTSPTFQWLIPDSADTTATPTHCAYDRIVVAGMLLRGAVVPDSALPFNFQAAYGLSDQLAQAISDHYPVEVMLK
Test: Plasmid incision assay of endonuclease activity, recombinant DNase I
Assay type: biochemical
Conditions: 0, 100 or 200 μM; 1 hour at 37° C.; pBR322 plasmid DNA
Experimental: It was hypothesized that Zn^2+-chelates of aminothiols could provide radioprotection via their direct inhibition of nucleases and their antioxidant properties (i.e., prevent nuclease induction and release). To test this hypothesis, the activity of Zn(II) chelates to inhibit nucleases was assayed in vitro. For this, DNase I and EndoG were cloned, recombinant nuclease were expressed and purified for the in vitro assay. Human and mouse mature EndoG cDNA was reverse transcribed by RT-PCR from either normal human breast epithelial HMEC cells (Clonetics, Walkersville, Md.) or immortalized mouse proximal tubule epithelial TKPTS cells (obtained from D. Elsa Bello-Reuss, University of Texas Medical Branch, Galveston). The plasmid for mature human EndoG (A49-K297) with a C-terminal histidine tag and mouse mature EndoG (A45-K294) with a C-terminal histidine tag were constructed by inserting coding cDNA into pET29b(+) (Novagen, San Diego, Calif.) and expressed in Escherichia coli BL21 (DE3) cells using standard procedures. Expression of the recombinant proteins was induced by IPTG. The expressed recombinant protein was purified by HisTrap FF crude Kit (GE Healthcare, Uppsala, Sweden) and stored in 20 mM Tris-HCl, ph 7.5, 0.5 M NaCl, 2 mM 2-mercaptoethanol, and 50% glycerol.
(§1) Endonuclease activity was measured using a plasmid incision assay. Activity was measured in 20 μl samples containing 1 μg pBR322 plasmid DNA, 10 mM Tris-HCl, pH 7.7, 25 μg/ml bovine serum albumin V fraction, 0.5 mM dithiothreitol, 5 mM MgCl2, 2 mM CaCl2, and 2 μl endonuclease. After 1 hour incubation at 37° C., the reaction was stopped by the addition 5 μl 1% SDS, 100 mM EDTA. Digested DNA was then subjected to a 1% agarose gel electrophoresis at 7 V/cm for 1 hour at room temperature. The gel was stained in 0.5 μg/ml ethidium bromide solution for 20 minutes and photographed under […]. Scanning densitometer Fotodyne (Fotodyne Inc., Hartland, Wis.) was utilized to quantify the relative amount of endonuclease-treated plasmid DNA present in a covalently closed circular DNA (cccDNA), open circular DNA (ocDNA) or linear DNA (linDNA). One endonuclease unit was defined as the amount of enzyme required to convert 1 μg cccDNA to ocDNA and linDNA.
(§2) Recombinant DNase I and rat serum DNase (which is predominantly rat DNase I) were incubated with 0, 100, or 200 μM of a Zn^2+-chelate (i.e., Zn-3,5-diisopropylsalicylic acid (DIPS), Zn-gluconate, or Zn-glycinate), a ligand (i.e., DIPS, gluconic acid, or glycine, as negative controls), or ZnCl2 (as positive control).
In the case of `NCC(=O)[O-].NCC(=O)[O-].[Zn+2]` [Zn-glycinate], the “Inhibition of DNase I activity” value is reported as “inhibited”.
For `[Cl-].[Cl-].[Zn+2]` [ZnCl2], the “Inhibition of DNase I activity” value was “inhibition”.
For `CC(C)c1cc(C(=O)O)c(O)c(C(C)C)c1` [DIPS, 3,5-diisopropylsalicylic acid], the “Inhibition of DNase I activity” value was “no effect”.
With `O=C(O)[C@H](O)[C@@H](O)[C@H](O)[C@H](O)CO` [gluconic acid] the “Inhibition of DNase I activity” value was “no effect”.
In the case of `O=C([O-])[C@H](O)[C@@H](O)[C@H](O)[C@H](O)CO.O=C([O-])[C@H](O)[C@@H](O)[C@H](O)[C@H](O)CO.[Zn+2]` [Zn-gluconate], the “Inhibition of DNase I activity” value is reported as “inhibited”.
In the case of `NCC(=O)O` [glycine], the “Inhibition of DNase I activity” value is reported as “no effect”.

Target: T2, rat serum DNase (predominantly rat DNase I) (Rattus norvegicus, UniProt P21704)
T2 construct: rat serum DNase (which is predominantly rat DNase I); from tissue; host or cells: rat serum
T2 sequence (P21704 23-284): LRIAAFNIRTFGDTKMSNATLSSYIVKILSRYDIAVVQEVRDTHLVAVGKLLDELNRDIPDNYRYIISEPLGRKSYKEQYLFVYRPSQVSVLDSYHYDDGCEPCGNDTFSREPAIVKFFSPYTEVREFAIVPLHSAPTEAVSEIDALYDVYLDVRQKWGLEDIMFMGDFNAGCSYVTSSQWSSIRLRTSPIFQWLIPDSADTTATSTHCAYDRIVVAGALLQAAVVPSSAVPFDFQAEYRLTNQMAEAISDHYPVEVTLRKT
Test: Plasmid incision assay of endonuclease activity, rat serum DNase
Assay type: biochemical
Conditions: 0, 100 or 200 μM; 1 hour at 37° C.; pBR322 plasmid DNA
Experimental: as §1, §2
For `NCC(=O)[O-].NCC(=O)[O-].[Zn+2]` [Zn-glycinate], the “Inhibition of serum DNase activity” value was “inhibited”.
In the case of `[Cl-].[Cl-].[Zn+2]` [ZnCl2], the “Inhibition of serum DNase activity” value is reported as “inhibition”.
For `CC(C)c1cc(C(=O)O)c(O)c(C(C)C)c1` [DIPS, 3,5-diisopropylsalicylic acid], the “Inhibition of serum DNase activity” value was “no effect”.
For `O=C(O)[C@H](O)[C@@H](O)[C@H](O)[C@H](O)CO` [gluconic acid], the “Inhibition of serum DNase activity” value was “no effect”.
For `O=C([O-])[C@H](O)[C@@H](O)[C@H](O)[C@H](O)CO.O=C([O-])[C@H](O)[C@@H](O)[C@H](O)[C@H](O)CO.[Zn+2]` [Zn-gluconate], the “Inhibition of serum DNase activity” value was “inhibited”.
In the case of `NCC(=O)O` [glycine], the “Inhibition of serum DNase activity” value is reported as “no effect”.

Tested on: human U937 cells
Test: Radiation injury of U937 cells (4 Gy), chelates added before or at times after irradiation
Assay type: cell-based
Conditions: added 30 minutes before, immediately after, or up to 4 hours after irradiation
Experimental: FRTL-5 thyroid cells (ATCC, catalog #CRL8305) were irradiated with 450 Gy without or with Zn^2+-chelates added before and/or after irradiation. […] In another experiment, Zn^2+-chelates (i.e., Zn-captopril, Zn-NAC, Zn-penicillamine, or Zn-PTCA) were added to human U937 cells either 30 minutes before, immediately after, or up to 4 hours after irradiation (4 Gy).
For zinc-penicillamine [Zn-Penicillamine], the “Protection against radiation injury” value was “protected”.
In the case of `CCCC1NC(C(=O)O)CS1.[Zn]` (stereo not drawn) [Zn-PTCA, zinc-2-n-propylthiazolidine-4-carboxylic acid], the “Protection against radiation injury” value is reported as “protected”.
With zinc-captopril [Zn-Captopril] the “Protection against radiation injury” value was “protected”.

Tested on: U937 cells
Test: Radiation-induced DNA fragmentation in U937 cells, TUNEL assay
Assay type: cell-based, human
Conditions: added before 50 Gy; TUNEL 24 hr later
Experimental: Female CD-1 mice (n=4) were irradiated with an 8 Gy dose and apoptotic endonuclease-mediated DNA fragmentation was measured in different organs 40 hours after irradiation. For this, tissue sections were subjected to terminal deoxynucleotidyl transferase mediated dUTP nick end labeling (TUNEL) staining with the In Situ Cell Death Detection Kit from Roche Diagnostics (Indianapolis, Ind.). After washing and counterstaining with 4,6-diamidino-2-phenylindole (DAPI) sections were mounted under coverslips using the Antifade kit (Molecular Probes; Eugene, Oreg.) and analyzed under an Axioskop-2 mot plus microscope (Carl Zeiss, Gottingen Germany) with green filter set #31001, red filter set #11010v2 and blue filter set #31000 from Chroma Technology Corp. (Rockingham, Vt.). Images and acquisitions were performed using digital camera AxioCam MRm (Carl Zeiss) and software Axiovision 3.1 (Carl Zeiss).
The ability of the Zn^2+-chelates to inhibit radiation-induced DNA fragmentation was also examined. U937 cells were exposed to amifostine (as a positive control) or Zn^2+—N-acetylcysteine (Zn-NAC), irradiated as described above, and DNA fragmentation and cell death were measured 24 hr later using a TUNEL assay, essentially as described in Example 1.
For `NCCCNCCSP(=O)(O)O` [amifostine, Amifostine], the “Radiation-induced DNA fragmentation” value was “inhibited”.

Source: patent US8916712B2, “Compositions and methods for cytoprotection” (Board of Trustees of the University of Arkansas, priority 2007, dated 2014)
